Measurements as given in patent US20260356819A1, “OXOISOINDOLINYL-SUBSTITUTED […] DERIVATIVE AND USE THEREOF” (GLUETACS THERAPEUTICS (SHANGHAI) CO., LTD., priority 2023, published 2026).

Columns and labels:
Jurkat cells = experiment: Inhibition of proliferation of T lymphocytic leukemia cells Jurkat (cell viability assay, 96 h); format: cell-based, human; conditions: read-out: inhibitory activity (IC50) against tumor cells proliferation, Jurkat
IKZF1 = target: T1, IKZF1 (Homo sapiens, UniProt Q13422+Q96SW2); experiment: Western blot degradation of IKZF1 in hPBMCs (24 h); format: cell-based; conditions: compounds at 50 nM and 500 nM
T1 construct: The supernatant was aspirated as the extracted total cell protein; endogenous in cells; host or cells: human peripheral blood mononuclear cells (hPBMCs)
Outline: (§1)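 In this assay, each compound was incubated with human PBMCs for 24 h at 50 nM and 500 nM. Target levels were measured by Western blot densitometry normalised to an internal control.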

IKZF2 = target: T2, IKZF2 (Homo sapiens, UniProt Q96SW2+Q9UKS7); experiment: Western blot degradation of IKZF2 in hPBMCs (24 h); format: cell-based; conditions: compounds at 50 nM and 500 nM
T2 construct: The supernatant was aspirated as the extracted total cell protein; endogenous in cells; host or cells: human peripheral blood mononuclear cells (hPBMCs)
Outline: as §1

IKZF3 = target: T3, IKZF3 (Homo sapiens, UniProt Q96SW2+Q9UKT9); experiment: Western blot degradation of IKZF3 in hPBMCs (24 h); format: cell-based; conditions: compounds at 50 nM and 500 nM
T3 construct: The supernatant was aspirated as the extracted total cell protein; endogenous in cells; host or cells: human peripheral blood mononuclear cells (hPBMCs)
Outline: as §1

GSPT1 = target: T4, GSPT1 (Homo sapiens, UniProt P15170+Q96SW2); experiment: Western blot degradation of GSPT1 in hPBMCs (24 h); format: cell-based; conditions: compounds at 50 nM and 500 nM
T4 construct: The supernatant was aspirated as the extracted total cell protein; endogenous in cells; host or cells: human peripheral blood mononuclear cells (hPBMCs)
Outline: as §1

CK1α = target: T5, CK1α (Homo sapiens, UniProt P48729+Q96SW2); experiment: Western blot degradation of CK1α in hPBMCs (24 h); format: cell-based; conditions: compounds at 50 nM and 500 nM
T5 construct: The supernatant was aspirated as the extracted total cell protein; endogenous in cells; host or cells: human peripheral blood mononuclear cells (hPBMCs)
Outline: as §1

MM.1S cells = experiment: Inhibition of proliferation of multiple myeloma cells MM.1S (cell viability assay, 96 h); format: cell-based, human; conditions: read-out: inhibitory activity (IC50) against tumor cells proliferation, MM.1S
WEE1 = target: T6, WEE1 (Homo sapiens, UniProt P30291+Q96SW2); experiment: Western blot degradation of WEE1 in hPBMCs (24 h); format: cell-based; conditions: compounds at 50 nM and 500 nM
T6 construct: The supernatant was aspirated as the extracted total cell protein; endogenous in cells; host or cells: human peripheral blood mononuclear cells (hPBMCs)
Outline: as §1

MGC803 cells = experiment: Inhibition of proliferation of gastric cancer cells MGC803 (cell viability assay, 96 h); format: cell-based, human; conditions: read-out: inhibitory activity (IC50) against tumor cells proliferation, MGC803
Protocol: The tumor cells used herein were cultured in a cell culture medium listed in table 2 at 37 °C in an incubator with 5% CO2. Prior to experimentation, all cell lines used were correctly identified by STR profiling, and tested negative for Mycoplasma contamination using a Mycoplasma detection kit through routine screenings.
The IC50 values of the compounds of the present disclosure (including the compounds in Table 1, and Examples 1-498) were determined using the CellTiter-Meiluncell Luminescent Cell Viability Assay Kit from Dalian Meilun Biotech Co., Ltd. The detailed procedure is as follows: Tumor cells were seeded in 96-well cell culture plates at the densities specified in Table 3. On the following day, the test compounds of the present disclosure were subjected to serial dilution. […] Subsequently, 0.5 μL of the test compound dilution was transferred into the 96-well plate containing the cells, with each well containing 100 μL of cell culture medium. […] Into the 96-well plate, the diluted test compounds and corresponding detection reagents were added, resulting in final test compound concentrations of 500 nM and 10 nM, respectively. The experimental procedure is described below using the diluted 2 μM test compound as an example.
0.5 μL of the aforementioned diluted compound of the present disclosure (including the compounds in Table 1, and Examples 1-498) was added to the seeded cells in 100 μL of medium, yielding a final test compound concentration of 10 nM. After the cells were treated with the compounds of the present disclosure for a specified period, the cell viability assay reagent was added to the culture medium according to the kit's instructions to determine cell viability. […] All controls were treated using the same procedure as the compounds of the present disclosure. The growth inhibition curves for the compounds of the present disclosure were plotted using Prism GraphPad software, and the IC50 values were calculated therefrom.

T6 sequence (P30291 whole entry): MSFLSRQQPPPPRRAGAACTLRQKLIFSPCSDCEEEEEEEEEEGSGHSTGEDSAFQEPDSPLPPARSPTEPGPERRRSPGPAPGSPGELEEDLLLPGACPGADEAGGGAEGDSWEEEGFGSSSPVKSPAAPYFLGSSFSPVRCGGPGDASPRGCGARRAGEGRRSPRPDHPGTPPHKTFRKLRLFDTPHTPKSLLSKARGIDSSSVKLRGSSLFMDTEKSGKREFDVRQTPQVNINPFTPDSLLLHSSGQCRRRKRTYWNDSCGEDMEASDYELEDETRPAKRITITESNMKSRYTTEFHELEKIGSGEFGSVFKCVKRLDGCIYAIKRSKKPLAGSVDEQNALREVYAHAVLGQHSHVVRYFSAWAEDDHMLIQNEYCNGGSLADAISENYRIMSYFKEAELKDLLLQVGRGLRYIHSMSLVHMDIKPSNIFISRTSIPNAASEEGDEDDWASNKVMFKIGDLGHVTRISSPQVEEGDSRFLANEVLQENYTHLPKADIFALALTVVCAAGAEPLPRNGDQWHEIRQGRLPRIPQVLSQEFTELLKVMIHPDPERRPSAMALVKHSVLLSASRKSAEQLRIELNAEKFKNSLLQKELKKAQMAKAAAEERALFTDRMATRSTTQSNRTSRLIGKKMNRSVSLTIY
T6 sequence (Q96SW2 whole entry): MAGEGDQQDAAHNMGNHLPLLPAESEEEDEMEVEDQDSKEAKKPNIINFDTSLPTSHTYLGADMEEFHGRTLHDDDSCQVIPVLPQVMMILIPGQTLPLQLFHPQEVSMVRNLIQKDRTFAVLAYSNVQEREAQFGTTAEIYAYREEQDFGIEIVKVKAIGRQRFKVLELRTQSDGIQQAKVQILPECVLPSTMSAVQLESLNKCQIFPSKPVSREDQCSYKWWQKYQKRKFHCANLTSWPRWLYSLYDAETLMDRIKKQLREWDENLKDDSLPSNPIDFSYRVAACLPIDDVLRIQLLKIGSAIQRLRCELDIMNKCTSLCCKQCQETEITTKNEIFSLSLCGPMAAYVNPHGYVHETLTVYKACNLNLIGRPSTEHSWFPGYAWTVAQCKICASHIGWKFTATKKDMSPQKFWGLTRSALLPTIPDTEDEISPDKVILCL
T6 sequence (Q16531 whole entry partner): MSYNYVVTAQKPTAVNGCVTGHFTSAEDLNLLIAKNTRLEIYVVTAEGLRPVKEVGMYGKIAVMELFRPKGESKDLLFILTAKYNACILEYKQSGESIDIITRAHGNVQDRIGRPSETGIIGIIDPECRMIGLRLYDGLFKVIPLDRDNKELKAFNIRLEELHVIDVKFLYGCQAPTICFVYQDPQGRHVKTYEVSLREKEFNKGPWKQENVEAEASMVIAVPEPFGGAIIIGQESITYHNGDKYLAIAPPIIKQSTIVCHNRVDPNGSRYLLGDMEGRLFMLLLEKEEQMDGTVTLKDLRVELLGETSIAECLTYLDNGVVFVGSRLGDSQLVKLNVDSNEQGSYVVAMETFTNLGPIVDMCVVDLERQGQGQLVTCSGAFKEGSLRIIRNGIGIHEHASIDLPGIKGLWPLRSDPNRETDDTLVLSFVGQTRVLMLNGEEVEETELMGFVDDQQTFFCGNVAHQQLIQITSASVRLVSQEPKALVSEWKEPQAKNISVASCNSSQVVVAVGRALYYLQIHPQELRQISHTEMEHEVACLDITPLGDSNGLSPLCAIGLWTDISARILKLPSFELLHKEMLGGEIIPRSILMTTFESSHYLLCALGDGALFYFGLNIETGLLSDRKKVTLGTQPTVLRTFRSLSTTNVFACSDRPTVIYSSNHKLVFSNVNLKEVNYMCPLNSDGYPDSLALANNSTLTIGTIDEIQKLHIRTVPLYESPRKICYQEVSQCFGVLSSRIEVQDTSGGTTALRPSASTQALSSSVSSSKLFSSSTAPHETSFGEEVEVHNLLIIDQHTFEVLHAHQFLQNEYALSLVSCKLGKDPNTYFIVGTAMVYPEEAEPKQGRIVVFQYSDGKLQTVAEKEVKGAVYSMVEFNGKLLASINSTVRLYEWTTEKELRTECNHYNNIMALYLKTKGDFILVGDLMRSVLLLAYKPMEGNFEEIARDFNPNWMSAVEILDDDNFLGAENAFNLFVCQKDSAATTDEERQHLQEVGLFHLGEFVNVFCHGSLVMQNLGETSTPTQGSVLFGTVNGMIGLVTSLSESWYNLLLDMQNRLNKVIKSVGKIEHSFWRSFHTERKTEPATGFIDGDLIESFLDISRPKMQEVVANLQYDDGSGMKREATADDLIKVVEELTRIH
T1 sequence (Q13422 whole entry): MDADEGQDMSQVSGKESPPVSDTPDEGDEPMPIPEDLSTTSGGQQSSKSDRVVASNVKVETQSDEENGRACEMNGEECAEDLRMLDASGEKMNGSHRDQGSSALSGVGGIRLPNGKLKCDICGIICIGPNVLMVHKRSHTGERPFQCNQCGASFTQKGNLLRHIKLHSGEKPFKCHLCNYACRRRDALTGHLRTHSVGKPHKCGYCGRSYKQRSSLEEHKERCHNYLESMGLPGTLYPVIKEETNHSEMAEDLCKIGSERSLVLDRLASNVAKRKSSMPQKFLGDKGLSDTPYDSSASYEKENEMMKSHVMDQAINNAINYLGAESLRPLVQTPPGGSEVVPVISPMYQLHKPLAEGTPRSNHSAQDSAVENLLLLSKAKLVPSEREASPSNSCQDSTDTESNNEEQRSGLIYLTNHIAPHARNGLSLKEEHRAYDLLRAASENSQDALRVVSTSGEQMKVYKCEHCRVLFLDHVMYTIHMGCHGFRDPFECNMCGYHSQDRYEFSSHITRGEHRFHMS
T1 sequence (Q96SW2 whole entry): as the sequence (Q96SW2 whole entry) above
T1 sequence (Q16531 whole entry partner): as the sequence (Q16531 whole entry partner) above
T3 sequence (Q9UKT9 whole entry): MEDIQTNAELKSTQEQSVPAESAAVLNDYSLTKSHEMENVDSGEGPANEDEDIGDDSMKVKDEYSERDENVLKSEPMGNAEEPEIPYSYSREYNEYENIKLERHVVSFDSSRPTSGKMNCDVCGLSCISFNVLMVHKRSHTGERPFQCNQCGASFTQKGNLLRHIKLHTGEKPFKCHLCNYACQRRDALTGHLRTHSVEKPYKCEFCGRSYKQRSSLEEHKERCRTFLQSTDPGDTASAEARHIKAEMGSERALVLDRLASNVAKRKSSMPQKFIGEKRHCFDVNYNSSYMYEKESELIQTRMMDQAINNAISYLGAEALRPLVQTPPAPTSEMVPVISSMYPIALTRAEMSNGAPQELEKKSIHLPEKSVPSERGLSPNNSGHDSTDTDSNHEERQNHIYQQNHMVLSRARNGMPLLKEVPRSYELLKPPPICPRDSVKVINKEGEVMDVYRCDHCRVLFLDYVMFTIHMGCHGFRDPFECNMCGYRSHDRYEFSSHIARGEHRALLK
T3 sequence (Q96SW2 whole entry): as the sequence (Q96SW2 whole entry) above
T3 sequence (Q16531 whole entry partner): as the sequence (Q16531 whole entry partner) above
T2 sequence (Q9UKS7 whole entry): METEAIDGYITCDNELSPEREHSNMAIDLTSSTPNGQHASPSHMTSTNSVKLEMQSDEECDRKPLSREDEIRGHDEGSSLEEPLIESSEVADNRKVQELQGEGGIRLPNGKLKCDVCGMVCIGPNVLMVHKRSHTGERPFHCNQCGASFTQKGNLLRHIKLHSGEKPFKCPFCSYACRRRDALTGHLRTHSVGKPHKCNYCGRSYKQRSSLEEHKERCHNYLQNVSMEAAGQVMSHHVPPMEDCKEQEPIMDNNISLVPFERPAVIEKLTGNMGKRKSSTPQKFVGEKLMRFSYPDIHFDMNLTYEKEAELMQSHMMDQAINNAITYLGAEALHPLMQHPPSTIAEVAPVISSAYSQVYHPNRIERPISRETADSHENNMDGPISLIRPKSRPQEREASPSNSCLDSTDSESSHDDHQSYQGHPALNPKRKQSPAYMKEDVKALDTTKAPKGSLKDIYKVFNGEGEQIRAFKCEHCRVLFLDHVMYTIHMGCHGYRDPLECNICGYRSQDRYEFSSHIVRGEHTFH
T2 sequence (Q96SW2 whole entry): as the sequence (Q96SW2 whole entry) above
T2 sequence (Q16531 whole entry partner): as the sequence (Q16531 whole entry partner) above
T4 sequence (P15170 whole entry): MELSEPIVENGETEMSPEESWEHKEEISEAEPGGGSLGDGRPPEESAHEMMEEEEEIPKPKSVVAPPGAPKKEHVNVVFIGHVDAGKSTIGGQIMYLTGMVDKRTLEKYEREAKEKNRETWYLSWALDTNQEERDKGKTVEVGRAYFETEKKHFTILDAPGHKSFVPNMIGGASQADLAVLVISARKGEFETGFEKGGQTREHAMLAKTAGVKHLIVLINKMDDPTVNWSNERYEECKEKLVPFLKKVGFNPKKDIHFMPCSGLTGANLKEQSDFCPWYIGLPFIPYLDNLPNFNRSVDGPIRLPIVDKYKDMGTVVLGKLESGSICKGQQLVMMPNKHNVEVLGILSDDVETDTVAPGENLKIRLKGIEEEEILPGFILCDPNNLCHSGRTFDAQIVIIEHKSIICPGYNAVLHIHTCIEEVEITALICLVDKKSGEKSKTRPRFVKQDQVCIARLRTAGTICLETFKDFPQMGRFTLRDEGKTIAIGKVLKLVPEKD
T4 sequence (Q96SW2 whole entry): as the sequence (Q96SW2 whole entry) above
T4 sequence (Q16531 whole entry partner): as the sequence (Q16531 whole entry partner) above

Compound | IC50 (Jurkat cells) [nM] | IKZF1 substrate protein remaining % (IKZF1) | IKZF2 substrate protein remaining % (IKZF2) | IKZF3 substrate protein remaining % (IKZF3) | GSPT1 substrate protein remaining % (GSPT1) | CK1α substrate protein remaining % (CK1α) | IC50 (MM.1S cells) [nM] | WEE1 substrate protein remaining % (WEE1) | IC50 (MGC803 cells) [nM]
O=C1CCN(N2Cc3cc(CN4CC=C(c5cccs5)CC4)ccc3C2=O)C(=O)N1 [GT-04868, 1-(1-oxo-5-((4-(thiophen-2-yl)-3,6-dihydropyridin-1(2H)-yl)methyl)isoindolin-2-yl)dihydropyrimidine-2,4(1H,3H)-dione] | 300 to 500 | A (0% ≤ substrate protein remaining % ≤80%) | B (80%< substrate protein remaining % ≤100%) | B (80%< substrate protein remaining % ≤100%) | A (0% ≤ substrate protein remaining % ≤80%) | A (0% ≤ substrate protein remaining % ≤80%) | 100 to 300 | A (0% ≤ substrate protein remaining % ≤80%) | 300 to 500
Cc1ccc(C2=CCN(Cc3ccc4c(c3)CN(N3CCC(=O)NC3=O)C4=O)CC2)s1 [GT-04869, 1-(5-((4-(5-methylthiophen-2-yl)-3,6-dihydropyridin-1(2H)-yl)methyl)-1-oxoisoindolin-2-yl)dihydropyrimidine-2,4(1H,3H)-dione] | 300 to 500 | A (0% ≤ substrate protein remaining % ≤80%) | A (0% ≤ substrate protein remaining % ≤80%) | A (0% ≤ substrate protein remaining % ≤80%) | A (0% ≤ substrate protein remaining % ≤80%) | B (80%< substrate protein remaining % ≤100%) | 50 to 100 | A (0% ≤ substrate protein remaining % ≤80%) | 300 to 500
Cc1ccsc1C1=CCN(Cc2ccc3c(c2)CN(N2CCC(=O)NC2=O)C3=O)CC1 [GT-04870, 1-(5-((4-(3-methylthiophen-2-yl)-3,6-dihydropyridin-1(2H)-yl)methyl)-1-oxoisoindolin-2-yl)dihydropyrimidine-2,4(1H,3H)-dione] | 100 to 300 | A (0% ≤ substrate protein remaining % ≤80%) | A (0% ≤ substrate protein remaining % ≤80%) | A (0% ≤ substrate protein remaining % ≤80%) | A (0% ≤ substrate protein remaining % ≤80%) | B (80%< substrate protein remaining % ≤100%) | 50 to 100 | A (0% ≤ substrate protein remaining % ≤80%) | 100 to 300
O=C1CCN(N2Cc3cc(CN4CC=C(c5ccsc5)CC4)ccc3C2=O)C(=O)N1 [GT-04871, 1-(1-oxo-5-((4-(thiophen-3-yl)-3,6-dihydropyridin-1(2H)-yl)methyl)isoindolin-2-yl)dihydropyrimidine-2,4(1H,3H)-dione] | 300 to 500 | A (0% ≤ substrate protein remaining % ≤80%) | B (80%< substrate protein remaining % ≤100%) | B (80%< substrate protein remaining % ≤100%) | A (0% ≤ substrate protein remaining % ≤80%) | B (80%< substrate protein remaining % ≤100%) | 100 to 300 | A (0% ≤ substrate protein remaining % ≤80%) | 300 to 500
Cc1cscc1C1=CCN(Cc2ccc3c(c2)CN(N2CCC(=O)NC2=O)C3=O)CC1 [GT-04872, 1-(5-((4-(4-methylthiophen-3-yl)-3,6-dihydropyridin-1(2H)-yl)methyl)-1-oxoisoindolin-2-yl)dihydropyrimidine-2,4(1H,3H)-dione] | 100 to 300 | A (0% ≤ substrate protein remaining % ≤80%) | B (80%< substrate protein remaining % ≤100%) | B (80%< substrate protein remaining % ≤100%) | A (0% ≤ substrate protein remaining % ≤80%) | B (80%< substrate protein remaining % ≤100%) | 10 to 50 | A (0% ≤ substrate protein remaining % ≤80%) | 100 to 300
Cc1cc(C2=CCN(Cc3ccc4c(c3)CN(N3CCC(=O)NC3=O)C4=O)CC2)cs1 [GT-04873, 1-(5-((4-(5-methylthiophen-3-yl)-3,6-dihydropyridin-1(2H)-yl)methyl)-1-oxoisoindolin-2-yl)dihydropyrimidine-2,4(1H,3H)-dione] | 100 to 300 | A (0% ≤ substrate protein remaining % ≤80%) | B (80%< substrate protein remaining % ≤100%) | A (0% ≤ substrate protein remaining % ≤80%) | A (0% ≤ substrate protein remaining % ≤80%) | B (80%< substrate protein remaining % ≤100%) | 50 to 100 | A (0% ≤ substrate protein remaining % ≤80%) | 100 to 300
O=C1CCN(N2Cc3cc(CN4CCN(C(c5ccccc5)c5ccccc5)CC4)ccc3C2=O)C(=O)N1 [GT-04889, 1-(5-((4-benzhydrylpiperazin-1-yl)methyl)-1-oxoisoindolin-2-yl)dihydropyrimidine-2,4(1H,3H)-dione] | 300 to 500 | A (0% ≤ substrate protein remaining % ≤80%) | A (0% ≤ substrate protein remaining % ≤80%) | A (0% ≤ substrate protein remaining % ≤80%) | A (0% ≤ substrate protein remaining % ≤80%) | B (80%< substrate protein remaining % ≤100%) | 100 to 300 | A (0% ≤ substrate protein remaining % ≤80%) | 300 to 500
O=C1CCN(N2Cc3cc(CN4CCC(N(c5ccccc5)c5ccccc5)CC4)ccc3C2=O)C(=O)N1 [GT-04939, 1-(5-((4-(diphenylamino)piperidin-1-yl)methyl)-1-oxoisoindolin-2-yl)dihydropyrimidine-2,4(1H,3H)-dione] | 100 to 300 | A (0% ≤ substrate protein remaining % ≤80%) | A (0% ≤ substrate protein remaining % ≤80%) | A (0% ≤ substrate protein remaining % ≤80%) | A (0% ≤ substrate protein remaining % ≤80%) | A (0% ≤ substrate protein remaining % ≤80%) | 10 to 50 | A (0% ≤ substrate protein remaining % ≤80%) | 100 to 300
O=C1CCN(N2Cc3cc(CN4CCC(N(c5ccccc5)c5ccccn5)CC4)ccc3C2=O)C(=O)N1 [GT-04940, 1-(1-oxo-5-((4-(phenyl(pyridin-2-yl)amino)piperidin-1-yl)methyl)isoindolin-2-yl)dihydropyrimidine-2,4(1H,3H)-dione] | 100 to 300 | A (0% ≤ substrate protein remaining % ≤80%) | A (0% ≤ substrate protein remaining % ≤80%) | A (0% ≤ substrate protein remaining % ≤80%) | A (0% ≤ substrate protein remaining % ≤80%) | A (0% ≤ substrate protein remaining % ≤80%) | 50 to 100 | A (0% ≤ substrate protein remaining % ≤80%) | 100 to 300
O=C1CCN(N2Cc3cc(CN4CCC(Nc5ccccc5-c5ccc(Cl)cc5)CC4)ccc3C2=O)C(=O)N1 [GT-04943, 1-(5-((4-((4′-chloro-[1,1′-biphenyl]-2-yl)amino)piperidin-1-yl)methyl)-1-oxoisoindolin-2-yl)dihydropyrimidine-2,4(1H,3H)-dione] | 100 to 300 | A (0% ≤ substrate protein remaining % ≤80%) | A (0% ≤ substrate protein remaining % ≤80%) | A (0% ≤ substrate protein remaining % ≤80%) | A (0% ≤ substrate protein remaining % ≤80%) | B (80%< substrate protein remaining % ≤100%) | 10 to 50 | A (0% ≤ substrate protein remaining % ≤80%) | 100 to 300
